Laboratory results: PubChem BioAssay (NCI)
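96-well plates; 48 h exposure; 5 concentrations. Endpoints by linear interpolation between flanking doses. Not reached: highest tested concentration assigned. At the TGI there is no net growth.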 *1 amine or outer side, *2 acyl side, *3 side chain or, on linkers, in order; H or OH if unused. Where a SMILES comes first, the peptide text is derived from it. Bridges are numbered along the chain shown (N, C = ends). [ ]: non-standard residue; d: D form. The star is where a group is joined. X38 = CC[C@H](C)[C@@H](N[*:1])[C@@H](O)CC(=O)[*:2]; NMeY = CN[C@@H](Cc1ccc(O)cc1)C(=O)O; dNMeL = CN[C@H](CC(C)C)C(=O)O; Hiv = CC(C)[C@H](O)C(=O)O; Pyruvoyl = CC(=O)C(=O)*

Assays:
Test in all cases: growth of human tumour cells (NCI), 48 h
[1] = system: A549 NSCLC
[2] = system: HCT-116 colon
[3] = system: K-562 leukemia
[4] = system: MCF7 breast
[5] = system: NCI-H23 lung
[6] = system: OVCAR-5 ovarian
[7] = system: RXF 393 renal
[8] = system: SK-MEL-28 melanoma
[9] = system: SNB-19 CNS
[10] = system: U251 CNS

SMILES | TGI [1] [µM] | TGI [2] [µM] | TGI [3] [µM] | TGI [4] [µM] | TGI [5] [µM] | TGI [6] [µM] | TGI [7] [µM] | TGI [8] [µM] | TGI [9] [µM] | TGI [10] [µM]
Fc1cc(C2=C[C@H](c3ccc(Cl)cc3)NC(=S)N2)c(Cl)cc1Cl | > 100 | > 100 | > 100 | > 100 | > 100 | > 100 | > 100 | > 100 | > 100 | > 100
CC1C2CC(CC(=O)N2)C1(C)C (stereo not given) | > 100 | > 100 | > 100 | > 100 | > 100 | > 100 | > 100 | > 100 | > 100 | > 100
Cc1c2ccncc2cc2c1sc1ccncc12 | 5.3 | 13.1 | 21.5 | 3.56 | 10.7 | 19.7 | 12.4 | 14.1 | 30.3 | 14.7
CCOC(=O)C(c1c[nH]c2ccccc12)(c1c[nH]c2ccccc12)c1c[nH]c2ccccc12 | > 100 | > 100 | 46.8 | 90.2 | > 100 | > 100 | 87.5 | > 100 | > 100 | > 100
C[C@@]12C=CC3C/C(=N\C(N)=S)C=C(CCCC4OCCO4)[C@]3(CC1)C2 (stereo not given in full) | 59.7 | 26.8 | > 100 | 26.4 | 58.5 | 33.3 | 31.7 | 35 | > 100 | 48.4
NC(=O)c1cc2ccccc2oc1=Nc1ccccc1 | > 100 | > 100 | > 100 | > 100 | > 100 | > 100 | > 100 | > 100 | > 100 | > 100
CCOC(=O)NC(C(F)(F)F)(C(F)(F)F)P(=O)(OC(C)C)OC(C)C | > 100 | > 100 | > 100 | > 100 | > 100 | > 100 | > 100 | > 100 | > 100 | > 100
CC[C@H](C)[C@H]1NC(=O)[C@@H](NC(=O)[C@@H](CC(C)C)N(C)C(=O)[C@@H]2CCCN2C(=O)C(C)=O)[C@@H](C)OC(=O)[C@H](Cc2ccc(OC)cc2)N(C)C(=O)[C@@H]2CCCN2C(=O)[C@H](CC(C)C)NC(=O)[C@H](C(C)C)OC(=O)C[C@@H]1O (Pyruvoyl-P[dNMeL]T[X38][Hiv]LP[NMeY](Me); ester 3-C) | 0.0618 | 0.12 | 0.104 | 0.0599 | 0.0421 | 0.167 | 0.0122 | 0.543 | 0.721 | 0.154
C[C@H]1[C@H](C)N(Cc2ccccc2)P(=O)(C(O)/C=C/c2ccccc2)N1Cc1ccccc1 (stereo not given in full) | > 25 | 11.6 | > 25 | > 25 | > 25 | 18.8 | 15.6 | > 25 | > 25 | 10
COc1ccc(Br)c2c1CC(C(=O)O)CC2 (stereo not given) | > 100 | > 100 | > 100 | > 100 | > 100 | > 100 | > 100 | > 100 | > 100 | > 100
CSc1nc2ccccc2c(=O)n1/N=C1\C(=O)N(CN2CCCCC2)c2ccc(Cl)cc21 | > 100 | > 100 | > 100 | > 100 | > 100 | > 100 | 33.4 | > 100 | > 100 | > 100
CCCCCC(=O)Nc1n[nH]nc1C(N)=O | > 100 | > 100 | > 100 | > 100 | > 100 | > 100 | > 100 | > 100 | > 100 | > 100
COc1ccc(/C=C(\Cl)c2ccc(OC)c(OC)c2)cc1OC | > 100 | > 100 | > 100 | > 100 | > 100 | > 100 | > 100 | > 100 | > 100 | > 100
c1csc(-c2cscc2-c2ccsc2)c1 | > 100 | > 100 | > 100 | > 83.5 | > 100 | > 100 | 68.3 | > 100 | > 100 | > 100
O=C(NC(C(F)(F)F)(C(F)(F)F)P(=O)(c1ccccc1)c1ccccc1)C(C(F)(F)F)C(F)(F)F | > 100 | 39.1 | > 100 | 62.1 | 64.2 | > 100 | 68.2 | > 100 | > 100 | > 100
